Measurements published in ChEMBL document CHEMBL1649268, “Comparative in vitro activity profile of oritavancin against recent gram-positive clinical isolates” (2009).
Converted amounts (≈) assume the structure as drawn.

Key:
Streptococcus pyogenes [1] = experiment: Antimicrobial activity against erythromycin-susceptible Streptococcus pyogenes clinical isolates assessed as percent susceptible isolates by broth microdilution method; assay type: functional
Streptococcus agalactiae [2] = experiment: Antimicrobial activity against erythromycin-susceptible Streptococcus agalactiae clinical isolates assessed as percent susceptible isolates by broth microdilution method; assay type: functional
[3] = tested on: Staphylococcus haemolyticus; experiment: Antimicrobial activity against Staphylococcus haemolyticus clinical isolates assessed as percent susceptible isolates by broth microdilution method; assay type: functional
Streptococcus [4] = experiment: Antimicrobial activity against erythromycin-susceptible Streptococcus Group F clinical isolates by broth microdilution method; assay type: functional
[5] = Antimicrobial activity against erythromycin-nonsusceptible Streptococcus Group C clinical isolates by broth microdilution method; assay type: functional; settings: Streptococcus sp. 'group C'
Streptococcus pneumoniae [6] = experiment: Antimicrobial activity against penicillin-resistant Streptococcus pneumoniae clinical isolates by broth microdilution method; assay type: functional
Streptococcus [7] = experiment: Antimicrobial activity against erythromycin-nonsusceptible Streptococcus Group F clinical isolates by broth microdilution method; assay type: functional
[8] = tested on: Staphylococcus epidermidis; experiment: Antimicrobial activity against oxacillin-resistant Staphylococcus epidermidis clinical isolates assessed as percent susceptible isolates by broth microdilution method; assay type: functional
Enterococcus faecalis [9] = experiment: Antimicrobial activity against vancomycin-nonsusceptible Enterococcus faecalis clinical isolates assessed as percent susceptible isolates by broth microdilution method; assay type: functional
Streptococcus pneumoniae [10] = experiment: Antimicrobial activity against Streptococcus pneumoniae clinical isolates assessed as percent susceptible isolates by broth microdilution method; assay type: functional
Streptococcus agalactiae [11] = experiment: Antimicrobial activity against erythromycin-susceptible Streptococcus agalactiae clinical isolates by broth microdilution method; assay type: functional
[12] = Antimicrobial activity against erythromycin-nonsusceptible Streptococcus Group G clinical isolates by broth microdilution method; assay type: functional; settings: Streptococcus sp. 'group G'
Streptococcus pneumoniae [13] = experiment: Antimicrobial activity against penicillin-susceptible Streptococcus pneumoniae clinical isolates assessed as percent susceptible isolates by broth microdilution method; assay type: functional
Streptococcus agalactiae [14] = experiment: Antimicrobial activity against Streptococcus agalactiae clinical isolates assessed as percent susceptible isolates by broth microdilution method; assay type: functional
Streptococcus [15] = experiment: Antimicrobial activity against Streptococcus Group F clinical isolates by broth microdilution method; assay type: functional
Enterococcus faecalis [16] = experiment: Antimicrobial activity against Enterococcus faecalis clinical isolates by broth microdilution method; assay type: functional
Enterococcus faecalis [17] = experiment: Antimicrobial activity against vancomycin-susceptible Enterococcus faecalis clinical isolates assessed as resistant isolates by broth microdilution method; assay type: functional
Streptococcus pneumoniae [18] = experiment: Antimicrobial activity against penicillin-resistant Streptococcus pneumoniae clinical isolates assessed as percent susceptible isolates by broth microdilution method; assay type: functional
Streptococcus agalactiae [19] = experiment: Antimicrobial activity against erythromycin-nonsusceptible Streptococcus agalactiae clinical isolates assessed as resistant isolates by broth microdilution method; assay type: functional
Enterococcus faecium [20] = experiment: Antimicrobial activity against vancomycin-susceptible Enterococcus faecium clinical isolates by broth microdilution method; assay type: functional
Streptococcus agalactiae [21] = experiment: Antimicrobial activity against erythromycin-nonsusceptible Streptococcus agalactiae clinical isolates by broth microdilution method; assay type: functional
Streptococcus pneumoniae [22] = experiment: Antimicrobial activity against penicillin-susceptible Streptococcus pneumoniae clinical isolates by broth microdilution method; assay type: functional
Streptococcus agalactiae [23] = experiment: Antimicrobial activity against erythromycin-nonsusceptible Streptococcus agalactiae clinical isolates assessed as percent susceptible isolates by broth microdilution method; assay type: functional
Streptococcus pyogenes [24] = experiment: Antimicrobial activity against Streptococcus pyogenes clinical isolates assessed as percent susceptible isolates by broth microdilution method; assay type: functional
Staphylococcus aureus [25] = experiment: Antimicrobial activity against oxacillin-resistant Staphylococcus aureus clinical isolates assessed as percent susceptible isolates by broth microdilution method; assay type: functional
Streptococcus agalactiae [26] = experiment: Antimicrobial activity against Streptococcus agalactiae clinical isolates by broth microdilution method; assay type: functional
[27] = Antimicrobial activity against erythromycin-susceptible Streptococcus Group G clinical isolates assessed as percent susceptible isolates by broth microdilution method; assay type: functional, Streptococcus sp. 'group G'
Enterococcus faecium [28] = experiment: Antimicrobial activity against vancomycin-susceptible Enterococcus faecium clinical isolates assessed as resistant isolates by broth microdilution method; assay type: functional
Enterococcus faecalis [29] = experiment: Antimicrobial activity against Enterococcus faecalis expressing VanA gene clinical isolates assessed as percent susceptible isolates by broth microdilution method; assay type: functional
[30] = Antimicrobial activity against Streptococcus Group C clinical isolates by broth microdilution method; assay type: functional; settings: Streptococcus sp. 'group C'
Streptococcus pyogenes [31] = experiment: Antimicrobial activity against erythromycin-susceptible Streptococcus pyogenes clinical isolates by broth microdilution method; assay type: functional
Enterococcus faecalis [32] = experiment: Antimicrobial activity against Enterococcus faecalis expressing VanB gene clinical isolates by broth microdilution method; assay type: functional
Streptococcus pyogenes [33] = experiment: Antimicrobial activity against Streptococcus pyogenes clinical isolates by broth microdilution method; assay type: functional
Streptococcus pneumoniae [34] = experiment: Antimicrobial activity against penicillin-intermediate Streptococcus pneumoniae clinical isolates by broth microdilution method; assay type: functional
Staphylococcus aureus [35] = experiment: Antimicrobial activity against oxacillin-susceptible Staphylococcus aureus clinical isolates by broth microdilution method; assay type: functional
Enterococcus faecalis [36] = experiment: Antimicrobial activity against Enterococcus faecalis clinical isolates assessed as resistant isolates by broth microdilution method; assay type: functional
Enterococcus faecalis [37] = experiment: Antimicrobial activity against Enterococcus faecalis expressing VanB gene clinical isolates assessed as percent susceptible isolates by broth microdilution method; assay type: functional
Enterococcus faecalis [38] = experiment: Antimicrobial activity against vancomycin-nonsusceptible Enterococcus faecalis clinical isolates by broth microdilution method; assay type: functional
[39] = Antimicrobial activity against erythromycin-susceptible Streptococcus Group C clinical isolates by broth microdilution method; assay type: functional; settings: Streptococcus sp. 'group C'
Streptococcus [40] = experiment: Antimicrobial activity against Streptococcus Group F clinical isolates assessed as percent susceptible isolates by broth microdilution method; assay type: functional
Enterococcus faecium [41] = experiment: Antimicrobial activity against Enterococcus faecium expressing VanA gene clinical isolates by broth microdilution method; assay type: functional
Enterococcus faecalis [42] = experiment: Antimicrobial activity against vancomycin-nonsusceptible Enterococcus faecalis clinical isolates assessed as resistant isolates by broth microdilution method; assay type: functional
[43] = Antimicrobial activity against Streptococcus Group G clinical isolates by broth microdilution method; assay type: functional; settings: Streptococcus sp. 'group G'
[44] = Antimicrobial activity against erythromycin-susceptible Streptococcus Group G clinical isolates by broth microdilution method; assay type: functional; settings: Streptococcus sp. 'group G'
Streptococcus pneumoniae [45] = experiment: Antimicrobial activity against Streptococcus pneumoniae clinical isolates by broth microdilution method; assay type: functional
Streptococcus agalactiae [46] = experiment: Antimicrobial activity against erythromycin-susceptible Streptococcus agalactiae clinical isolates assessed as resistant isolates by broth microdilution method; assay type: functional
Streptococcus agalactiae [47] = experiment: Antimicrobial activity against Streptococcus agalactiae clinical isolates assessed as resistant isolates by broth microdilution method; assay type: functional
Enterococcus faecalis [48] = experiment: Antimicrobial activity against vancomycin-susceptible Enterococcus faecalis clinical isolates by broth microdilution method; assay type: functional
Streptococcus pyogenes [49] = experiment: Antimicrobial activity against erythromycin-nonsusceptible Streptococcus pyogenes clinical isolates by broth microdilution method; assay type: functional
Streptococcus pneumoniae [50] = experiment: Antimicrobial activity against penicillin-intermediate Streptococcus pneumoniae clinical isolates assessed as percent susceptible isolates by broth microdilution method; assay type: functional
[51] = tested on: Staphylococcus epidermidis; experiment: Antimicrobial activity against oxacillin-susceptible Staphylococcus epidermidis clinical isolates assessed as resistant isolates by broth microdilution method; assay type: functional
[52] = Antimicrobial activity against erythromycin-susceptible Streptococcus Group C clinical isolates assessed as percent susceptible isolates by broth microdilution method; assay type: functional, Streptococcus sp. 'group C'
Streptococcus pyogenes [53] = experiment: Antimicrobial activity against erythromycin-nonsusceptible Streptococcus pyogenes clinical isolates assessed as percent susceptible isolates by broth microdilution method; assay type: functional
[54] = Antimicrobial activity against Streptococcus Group C clinical isolates assessed as resistant isolates by broth microdilution method; assay type: functional, Streptococcus sp. 'group C'
[55] = Antimicrobial activity against erythromycin-susceptible Streptococcus Group C clinical isolates assessed as resistant isolates by broth microdilution method; assay type: functional, Streptococcus sp. 'group C'
Streptococcus pneumoniae [56] = experiment: Antimicrobial activity against penicillin-resistant Streptococcus pneumoniae clinical isolates assessed as resistant isolates by broth microdilution method; assay type: functional
[57] = Antimicrobial activity against erythromycin-susceptible Streptococcus Group G clinical isolates assessed as resistant isolates by broth microdilution method; assay type: functional, Streptococcus sp. 'group G'

CN[C@H](CC(C)C)C(=O)N[C@H]1C(=O)N[C@@H](CC(N)=O)C(=O)N[C@H]2C(=O)N[C@H]3C(=O)N[C@H](C(=O)N[C@H](C(=O)O)c4cc(O)cc(O)c4-c4cc3ccc4O)[C@H](O)c3ccc(c(Cl)c3)Oc3cc2cc(c3O[C@@H]2O[C@H](CO)[C@@H](O)[C@H](O)[C@H]2O[C@H]2C[C@](C)(N)[C@H](O)[C@H](C)O2)Oc2ccc(cc2Cl)[C@H]1O [VANCOMYCIN]
Activity (Streptococcus pyogenes [1]): 100%
Activity (Streptococcus agalactiae [2]): 100%
Activity [3]: 100%
MIC90 (Streptococcus [4]): 0.5 µg/mL (≈ 0.345 µM)
MIC90 [5]: 0.5 µg/mL (≈ 0.345 µM)
MIC90 (Streptococcus pneumoniae [6]): 0.5 µg/mL (≈ 0.345 µM)
MIC90 (Streptococcus [7]): 0.5 µg/mL (≈ 0.345 µM)
Activity [8]: 100%
Activity (Enterococcus faecalis [9]): 0%
Activity (Streptococcus pneumoniae [10]): 100%
MIC90 (Streptococcus agalactiae [11]): 0.5 µg/mL (≈ 0.345 µM)
MIC90 [12]: 0.5 µg/mL (≈ 0.345 µM)
Activity (Streptococcus pneumoniae [13]): 100%
Activity (Streptococcus agalactiae [14]): 100%
MIC90 (Streptococcus [15]): 0.5 µg/mL (≈ 0.345 µM)
MIC90 (Enterococcus faecalis [16]): 2 µg/mL (≈ 1.38 µM)
Activity (Enterococcus faecalis [17]): 0%
Activity (Streptococcus pneumoniae [18]): 100%
Activity (Streptococcus agalactiae [19]): 0%
MIC90 (Enterococcus faecium [20]): 1 µg/mL (≈ 0.69 µM)
MIC90 (Streptococcus agalactiae [21]): 0.5 µg/mL (≈ 0.345 µM)
MIC90 (Streptococcus pneumoniae [22]): 0.25 µg/mL (≈ 0.173 µM)
Activity (Streptococcus agalactiae [23]): 100%
Activity (Streptococcus pyogenes [24]): 100%
Activity (Staphylococcus aureus [25]): 100%
MIC90 (Streptococcus agalactiae [26]): 0.5 µg/mL (≈ 0.345 µM)
Activity [27]: 100%
Activity (Enterococcus faecium [28]): 0%
Activity (Enterococcus faecalis [29]): 0%
MIC90 [30]: 0.5 µg/mL (≈ 0.345 µM)
MIC90 (Streptococcus pyogenes [31]): 0.25 µg/mL (≈ 0.173 µM)
MIC90 (Enterococcus faecalis [32]): > 256 µg/mL
MIC90 (Streptococcus pyogenes [33]): 0.25 µg/mL (≈ 0.173 µM)
MIC90 (Streptococcus pneumoniae [34]): 0.25 µg/mL (≈ 0.173 µM)
MIC90 (Staphylococcus aureus [35]): 1 µg/mL (≈ 0.69 µM)
Activity (Enterococcus faecalis [36]): 4.7%
Activity (Enterococcus faecalis [37]): 0%
MIC90 (Enterococcus faecalis [38]): > 256 µg/mL
MIC90 [39]: 0.5 µg/mL (≈ 0.345 µM)
Activity (Streptococcus [40]): 100%
MIC90 (Enterococcus faecium [41]): > 256 µg/mL
Activity (Enterococcus faecalis [42]): 94.3%
MIC90 [43]: 0.5 µg/mL (≈ 0.345 µM)
MIC90 [44]: 0.5 µg/mL (≈ 0.345 µM)
MIC90 (Streptococcus pneumoniae [45]): 0.25 µg/mL (≈ 0.173 µM)
Activity (Streptococcus agalactiae [46]): 0%
Activity (Streptococcus agalactiae [47]): 0%
MIC90 (Enterococcus faecalis [48]): 2 µg/mL (≈ 1.38 µM)
MIC90 (Streptococcus pyogenes [49]): 0.25 µg/mL (≈ 0.173 µM)
Activity (Streptococcus pneumoniae [50]): 100%
Percent of isolates resistant [51]: 0%
Activity [52]: 100%
Activity (Streptococcus pyogenes [53]): 100%

CCC[C@@H]1C[C@@H](C(=O)N[C@@H]([C@H]2O[C@H](SC)[C@H](O)[C@@H](O)[C@H]2O)[C@H](C)Cl)N(C)C1 [CLINDAMYCIN]
Activity (Streptococcus pyogenes [1]): 100%
Activity (Streptococcus agalactiae [2]): 99%
Activity [3]: 70.3%
MIC90 (Streptococcus [4]): 0.06 µg/mL (≈ 0.141 µM)
MIC90 [5]: > 1 µg/mL
MIC (Streptococcus pneumoniae [6]): > 0.03 µg/mL
MIC90 (Streptococcus [7]): > 1 µg/mL
Activity [8]: 56.3%
Activity (Streptococcus pneumoniae [10]): 86.9%
MIC90 (Streptococcus agalactiae [11]): 0.06 µg/mL (≈ 0.141 µM)
MIC90 [12]: > 1 µg/mL
Activity (Streptococcus pneumoniae [13]): 97.2%
Activity (Streptococcus agalactiae [14]): 81.9%
MIC90 (Streptococcus [15]): 0.06 µg/mL (≈ 0.141 µM)
Activity [54]: 3.6%
Activity (Streptococcus pneumoniae [18]): 45.3%
Activity (Streptococcus agalactiae [19]): 57.4%
MIC90 (Streptococcus agalactiae [21]): > 1 µg/mL
MIC90 (Streptococcus pneumoniae [22]): 0.06 µg/mL (≈ 0.141 µM)
Activity (Streptococcus agalactiae [23]): 41%
Activity (Streptococcus pyogenes [24]): 96%
Activity (Staphylococcus aureus [25]): 61.9%
MIC90 (Streptococcus agalactiae [26]): > 1 µg/mL
Activity [27]: 100%
MIC90 [30]: 0.06 µg/mL (≈ 0.141 µM)
MIC90 (Streptococcus pyogenes [31]): 0.06 µg/mL (≈ 0.141 µM)
Activity [55]: 0%
Percent of isolates resistant (Streptococcus pneumoniae [56]): 54.1%
MIC90 (Streptococcus pyogenes [33]): 0.06 µg/mL (≈ 0.141 µM)
MIC90 (Streptococcus pneumoniae [34]): > 1 µg/mL
MIC90 (Staphylococcus aureus [35]): 0.25 µg/mL (≈ 0.588 µM)
MIC90 [39]: 0.06 µg/mL (≈ 0.141 µM)
Activity (Streptococcus [40]): 96.4%
MIC90 [43]: 0.06 µg/mL (≈ 0.141 µM)
Activity [57]: 0%
MIC90 [44]: 0.06 µg/mL (≈ 0.141 µM)
MIC90 (Streptococcus pneumoniae [45]): > 1 µg/mL
Activity (Streptococcus agalactiae [46]): 1%
Activity (Streptococcus agalactiae [47]): 17.6%
MIC90 (Streptococcus pyogenes [49]): > 1 µg/mL
Activity (Streptococcus pneumoniae [50]): 84.7%
Percent of isolates resistant [51]: 11%
Activity [52]: 100%
Activity (Streptococcus pyogenes [53]): 71%
